Legend:
[1] = system: formalin-induced pain behavior; experiment: Formalin test (1% formalin, hind paw shakes) with isobologram analysis; type: in vivo; details: IM, rat; for dose giving maximal antinociception effect: both phases of the formalin test; for dose reaching a significant difference in % antinociception: phase 2 of the formalin test; for ED30 (dose delivering 30% of the maximal effect): single drug, 60 min before formalin, % antinociception
Excerpt: Male Wistar rats aged 7-8 weeks weighting 175-199 g were used in the experiments. Rats had free access to food and water before the experiments. All experimental procedures complied with the Guidelines on Ethical Standards for investigations of Experimental Pain in Animals (IASP, 1983). Each rat was used only once and was sacrificed in a CO2-saturated glass bell. The formalin model is used mainly with rodents. The test consists in the subcutaneous administration of formalin (formaldehyde in concentrations ranging from 1 to 5%), in a 20-25 μL volume for mice 30-100 μL for rats. The injection is usually administered in the dorsal surface of the right hind paw, and animals are sacrificed once the test is finished. The formalin test describes several behaviors, such as biting, licking and shaking the injected hind paw. Hind paw shaking is the most used parameter for quantifying the degree of pain. The formalin test in rodents is biphasic. […] The second phase (tonic or inflammatory) onsets 15-20 minutes after the injection and lasts 20-40 minutes. The 1%-formalin injection induced the typical shaking behavior, characterized by a brisk withdrawal or bending of the injected hind paw. The temporal course was assessed in this figure after the 1%-formalin injection, and the biphasic (phase 1 and 2) behavior characterizing this model was observed. An isobologram analysis was employed to assess aceclofenac and betamethasone interactions. […] When connecting the dots an additivity line is obtained, useful to establish the type of interaction of both compounds under study. Dose-response curves (DRC) are constructed to obtain the ED30's of each active principle. At least 4 doses of each active principle are administered by IM injection to at least 6 animals. […] Before the test, the drugs were diluted and mixed for intramuscular administration. […] This dose was statistically compared to the dose that theoretically is the simple addition of effects, and which can be obtained with the following formula: […] Where R is the potency ratio of drugs 1 and 2 administered alone; P1 is the proportion of drug 1 in the mixture; P2 is the proportion of drug 2 in the mixture. […] The interaction type is determined by the graph region where the experimental value is located in relation to the theoretical value. If the value lies below the additivity line and is statistically different from the theoretical value, then the interaction is synergic (an effect greater than the sum of effects of each drug); if the value lies near the additivity line and is not statistically different from the theoretical value, then the interaction is only additive (an effect equal to the sum of effects of each drug). If the value lies […] and is statistically different from the theoretical value, then the interaction is subadditive or antagonistic. A software calculates the interaction index (I.I.) of two drugs, obtained with the following formula: I.I.=Experimental ED30/theoretical ED30 If the index is less than 1.0, then the interaction is synergic; if it is equal to 1.0, the interaction is additive, and if it is greater than 1.0, the interaction is antagonistic. For twelve hours before the experimental preclinical phase, rats fasted but had free access to water. […] The results are expressed as the average±standard error (SE) of at least 6 rats per group. The number of hind paw shakes/minute was graphed vs. time. The area under the curve (AUC) of temporal courses is a global expression of the effect intensity and duration, and was calculated with the trapezoid method. The antinoception percentage (%) was calculated with the following formula: % Antinociception=((Vehicle-Compound)/Vehicle)×100. The AUC's and % antinociception were evaluated by means of an analysis of variance (ANOVA) and a Tukey's test. Results with P<0.05 were considered statistically significant.

[2] = cited from earlier work

Compound	dose giving maximal antinociception effect [1] [mg/kg]	dose reaching a significant difference in % antinociception [1] [mg/kg]	number of shakes in phase 2 of the formalin test, expressed as % antinociception [1]	ED30 (dose delivering 30% of the maximal effect) [1] [mg/kg]	ED30 (dose delivering 30% of the maximal effect) ([1]; listed as betamethasone) [mg/kg]	solubility in water [2]	ED30 (dose delivering 30% of the maximal effect) ([1]; listed as aceclofenac) [mg/kg]
C[C@H]1C[C@H]2[C@@H]3CCC4=CC(=O)C=C[C@]4(C)[C@@]3(F)[C@@H](O)C[C@]2(C)[C@@]1(O)C(=O)CO [Betamethasone, (11β,16β)-9-Fluoro-11,17,21-trihydroxy-16-methylpregna-1,4-diene-3,20-dione]	31.6	17.7	decreased in a dose-dependent way	13.4722	13.472	insoluble in water	–
O=C(O)COC(=O)Cc1ccccc1Nc1c(Cl)cccc1Cl [Aceclofenac, [(2-{2,6-dichlorophenyl)amino}phenylacetooxyacetic acid]]	31.6	17.7	decreased in a dose-dependent way	1.8662	–	–	13.472

Reference: patent publication US20220062300A1 (priority 2019, published 2022)
